According to patent publication US20210000815A1, “PHARMACOKINETIC ENHANCEMENT OF EZH2 INHIBITORS THROUGH COMBINATION THERAPIES” (Constellation Pharmaceuticals, Inc., priority 2017, published 2021):
Entries after “also recorded” stand apart in the source; their conditions may differ.

How the values were obtained:
[1] = Adverse events in healthy subjects treated with Compound 1 with and without cobicistat; assay type: in vivo, human
Experimental: (§1) Healthy subjects were treated with Compound 1 with or without pretreatment with cobicistat. A single 400 mg dose of Compound 1 was administered under fasted conditions. There was a 7-day washout between administrations of the two single doses of Compound 1. Compound 1 was administered alone on Day 1 of Period 1 and administered in the presence of cobicistat on Day 1 of Period 2. Cobicistat was administered at a dose of 150 mg once daily for three days, with the third dose preceding the single dose of Compound 1 by two hours. Blood samples were collected for pharmacokinetic analysis of Compound 1 on Day 1 of each period at the following time points 0 (predose), 0.5, 1, 1.5, 2, 3, 4, 6, 8, 10, and 24 hours after the single dose of Compound 1.
All six subjects were males between the ages of 31 and 52 years. Three of the 6 subjects (50%) treated with Compound 1 with and without cobicistat reported a total of 6 adverse events. Diarrhea, reported in 2 subjects, was the only adverse event reported by more than one subject. The other adverse events reported by a single subject each included: abdominal pain, back pain, groin pain, and upper respiratory tract infection. Three of the 6 adverse events were considered to be related to study drug: concurrent events of diarrhea and abdominal pain and the other case of diarrhea. All adverse events were reported in Period 2, after dosing of all study drugs had been completed.

[2] = Single-dose pharmacokinetics of Compound 1 with or without cobicistat pretreatment in healthy subjects; assay type: in vivo, human
Experimental: as §1

[3] = Exposure of Compound 1 upon multiple-dose administration; assay type: in vivo
CYP3A = assay: Metabolism by and induction of hepatic enzyme CYP3A; assay type: in vitro ADME
[4] = 6 healthy male subjects, Compound 1 with and without cobicistat
[5] = single 400 mg Compound 1 with cobicistat 150 mg pretreatment vs alone
[6] = single 400 mg Compound 1 with cobicistat 150 mg pretreatment vs alone, lower bound over all subjects

COc1cc(C)[nH]c(=O)c1CNC(=O)c1c(C)n([C@H](C)C2CCN(CC(F)(F)F)CC2)c2ccccc12 [Compound 1, (R)—N-((4-methoxy-6-methyl-2-oxo-1,2-dihydropyridin-3-yl)methyl)-2-methyl-1-(1-(1-(2,2,2-trifluoroethyl)piperidin-4-yl)ethyl)-1H-indole-3-carboxamide]
Number of subjects reporting diarrhea [1, 4]: 2 subjects
Subjects reporting adverse events [1, 4]: 50%
Total number of adverse events reported [1, 4]: 6
Severity of adverse events ([1]; with the exception of a moderate case of upper respiratory tract infection): mild in severity
half-life ([2]; male, human, plasma, oral, all subjects treated with Compound 1 and cobicistat): < 5 h
Clearance decrease in the presence of cobicistat [2, 5]: 6.9 fold
Effect of cobicistat on Tmax [2, 5]: unaffected
Effect of cobicistat on terminal half-life (T1/2) [2, 5]: unaffected; also recorded: little or no effect
AUC increase in the presence of cobicistat, all subjects (least) [2, 6]: ≥ 4.9 fold
Cmax increase in the presence of cobicistat, all subjects (least) [2, 6]: ≥ 2.8 fold
Cmin increase in the presence of cobicistat, all subjects (least) [2, 6]: ≥ 19 fold
Exposure of Compound 1 400 mg with cobicistat 150 mg in healthy subjects compared with single 1600 mg dose of Compound 1 alone in patients with lymphoma ([2]; single dose): remarkably similar
Reduction in AUC with multiple doses [3]: approximately 60%
CYP3A induction (CYP3A): stronger inducer of CYP3A
Primary metabolizing enzyme (CYP3A): primarily metabolized by the hepatic enzyme CYP3A
